The results in this text go back to article PMC9862586, “3-(Adenosylthio)benzoic Acid Derivatives as SARS-CoV-2 Nsp14 Methyltransferase Inhibitors” (Molecules, 2023).

What all share (experiment): HTRF methyltransferase assay (SAM to SAH)
Common to all, as to format: biochemical
For orientation: Time-resolved FRET reads energy transfer from a long-lived donor to a nearby acceptor.

The target of test [1] is T1, human glycine N-methyltransferase (hGNMT) (Homo sapiens, UniProt Q14749).
T1 construct: gene GNMT; commercial protein (MyBioSource); homotetramer by known biology
T1 sequence (Q14749 2-295): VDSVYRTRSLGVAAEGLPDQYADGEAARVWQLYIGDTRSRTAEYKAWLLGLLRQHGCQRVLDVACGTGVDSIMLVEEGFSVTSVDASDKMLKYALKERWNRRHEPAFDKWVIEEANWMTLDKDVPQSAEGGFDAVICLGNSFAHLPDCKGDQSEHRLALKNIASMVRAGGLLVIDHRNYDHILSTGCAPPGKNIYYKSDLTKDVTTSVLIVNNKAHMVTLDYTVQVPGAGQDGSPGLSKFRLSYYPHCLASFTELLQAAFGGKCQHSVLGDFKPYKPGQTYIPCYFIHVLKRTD
The source says: HTRF methyltransferase assay (SAM to SAH) on human glycine N-methyltransferase (hGNMT)

Test [2] addresses T2, SARS-CoV-2 nsp14 guanine-N7-methyltransferase (Severe acute respiratory syndrome coronavirus 2, UniProt P0DTD1).
T2 construct: gene rep
The source says:
HTRF methyltransferase assay (SAM to SAH) on SARS-CoV-2 nsp14 guanine-N7-methyltransferase

For a further test, the target named is T3, nsp16/nsp10 (Severe acute respiratory syndrome coronavirus 2, UniProt P0DTD1).
T3 construct: gene rep
The settings on record: read-out: SARS-CoV-2 / nsp16/nsp10, IC50. The source says: HTRF methyltransferase assay (SAM to SAH) on nsp16/nsp10

Take `Nc1ncnc2c1ncn2[C@@H]1O[C@H](CSCc2ccc(C(=O)O)cc2)[C@@H](O)[C@H]1O` [5a, 4-(((Adenosyl)thio)methyl)benzoic acid]: the figures for the IC50 (in test [1]; in test [2]; on nsp16/nsp10) were 400 ± 40 nM, 500 ± 30 nM and 1450 ± 70 nM, respectively.

Regarding `CS(=O)(=O)Nc1cccc(CSC[C@H]2O[C@@H](n3cnc4c(N)ncnc43)[C@H](O)[C@@H]2O)c1` [5c, N-(3-(((Adenosyl)thio)methyl)phenyl)methanesulfonamide], the values for the IC50 (in test [1]; in test [2]; on nsp16/nsp10) were 250 ± 20 nM, 280 ± 20 nM and 480 ± 30 nM, respectively.

Regarding `Nc1ncnc2c1ncn2[C@@H]1O[C@H](CSCc2cccc(CC(=O)O)c2)[C@@H](O)[C@H]1O` [5d, 2-(3-(((Adenosyl)thio)methyl)phenyl)acetic acid], the results for the IC50 (in test [1]; in test [2]; at nsp16/nsp10) were 400 ± 30 nM, 680 ± 30 nM and 1840 ± 90 nM, respectively.

For the molecule `Nc1ncnc2c1ncn2[C@@H]1O[C@H](CSCc2cccc(O)c2)[C@@H](O)[C@H]1O` [5e, 5′-(((3-Hydroxy)benzyl)thio)-5′-deoxyadenosine], the IC50 in test [1] was determined as 600 ± 30 nM.

Turning to `Nc1ncnc2c1ncn2[C@@H]1O[C@H](CSCc2cccc(CO)c2)[C@@H](O)[C@H]1O` [5f, 5′-(((3-Hydroxymethyl)benzyl)thio)-5′-deoxyadenosine], the IC50 in test [1] was determined as 1200 ± 100 nM; in test [2], 740 ± 40 nM.

As to `N#Cc1cccc(CSC[C@H]2O[C@@H](n3cnc4c(N)ncnc43)[C@H](O)[C@@H]2O)c1` [5g, 3-(((Adenosyl)thio)methyl)benzonitrile], the IC50 in test [1] came out at 724 ± 58 nM; in test [2], 351 ± 28 nM.

Consider `Nc1ncnc2c1ncn2[C@@H]1O[C@H](CSCc2cccc(-c3nn[nH]n3)c2)[C@@H](O)[C@H]1O` [5h, 5′-((3-(Tetrazolyl)benzyl)thio)-5′-deoxyadenosine], for which the IC50 was determined as 220 ± 9 nM in test [1] and 340 ± 12 nM in test [2].

As to `CS(=O)(=O)c1cccc(CSC[C@H]2O[C@@H](n3cnc4c(N)ncnc43)[C@H](O)[C@@H]2O)c1` [5i, 5′-((3-(Methylsulfonyl)benzyl)thio)-5′-deoxyadenosine], the values for the IC50 in test [1] and in test [2] were 250 ± 20 nM and 270 ± 20 nM, respectively.

As to `CNS(=O)(=O)c1cccc(CSC[C@H]2O[C@@H](n3cnc4c(N)ncnc43)[C@H](O)[C@@H]2O)c1` [5j, 3-(((Adenosyl)thio)methyl)-N-methylbenzenesulfonamide], the IC50 came out at 350 ± 17 nM in test [1] and 400 ± 19 nM in test [2].

As to `COC(=O)c1cccc(CSC[C@H]2O[C@@H](n3cnc4c(N)ncnc43)[C@H](O)[C@@H]2O)c1` [5k, Methyl 3-(((adenosyl)thio)methyl)benzoate], the IC50 in test [1] came to 870 ± 50 nM; in test [2], 1350 ± 70 nM.

Regarding `CNC(=O)c1cccc(CSC[C@H]2O[C@@H](n3cnc4c(N)ncnc43)[C@H](O)[C@@H]2O)c1` [5l, 3-(((Adenosyl)thio)methyl)-N-methylbenzamide], the IC50 is 2780 ± 130 nM in test [1] and 2790 ± 140 nM in test [2].

As to `Nc1ncnc2c1ncn2[C@@H]1O[C@H](CSCc2ccc(Cl)c(C(=O)O)c2)[C@@H](O)[C@H]1O` [5m, 5-(((Adenosyl)thio)methyl)-2-chlorobenzoic acid], the IC50 in test [1] was found to be 6.6 ± 0.3 nM; in test [2], 7.7 ± 0.4 nM.

As for `Nc1ncnc2c1ncn2[C@@H]1O[C@H](CSCc2ccc(F)c(C(=O)O)c2)[C@@H](O)[C@H]1O` [5n, 5-(((Adenosyl)thio)methyl)-2-fluorobenzoic acid], the results for the IC50 in test [1] and in test [2] were 6.1 ± 0.3 nM and 16 ± 2 nM, respectively.

With `Nc1ncnc2c1ncn2[C@@H]1O[C@H](CSCc2cc(Cl)cc(C(=O)O)c2)[C@@H](O)[C@H]1O` [5o, 3-(((Adenosyl)thio)methyl)-5-chlorobenzoic acid], the figures for the IC50 in test [1] and in test [2] were 15 ± 0.7 nM and 24 ± 1.2 nM, respectively.

As to `Nc1ncnc2c1ncn2[C@@H]1O[C@H](CSCc2cc(C(=O)O)cc(-c3ccccc3)c2)[C@@H](O)[C@H]1O` [5p, 5-(((Adenosyl)thio)methyl)-[1,1′-biphenyl]-3-carboxylic acid], the IC50 in test [1] stood at 0.97 ± 0.05 nM; in test [2] it was 0.58 ± 0.03 nM.

For `Nc1ncnc2c1ncn2[C@@H]1O[C@H](CSCc2ccc(-c3ccccc3)c(C(=O)O)c2)[C@@H](O)[C@H]1O` [5r, 4-(((Adenosyl)thio)methyl)-[1,1′-biphenyl]-2-carboxylic acid], the IC50 in test [1] is 10 ± 0.5 nM; in test [2], 36 ± 1.8 nM.

`Nc1ncnc2c1ncn2[C@@H]1O[C@H](CSCc2cc(C(=O)O)cc(-c3ccc(O)cc3)c2)[C@@H](O)[C@H]1O` [5t, 5-(((Adenosyl)thio)methyl)-4′-hydroxy-[1,1′-biphenyl]-3-carboxylic acid]: the IC50 in test [1] was 4.5 ± 0.2 nM; in test [2], 4.2 ± 0.2 nM.

Take `Nc1ncnc2c1ncn2[C@@H]1O[C@H](CSCc2cc(C#CCO)cc(C(=O)O)c2)[C@@H](O)[C@H]1O` [5v, 3-(((Adenosyl)thio)methyl)-5-(3-hydroxyprop-1-yn-1-yl)benzoic acid]: the IC50 in test [1] was found to be 9.8 ± 0.5 nM; in test [2] it was 12 ± 0.6 nM.

Take `Nc1ncnc2c1ncn2[C@@H]1O[C@H](CSc2ccc(Cl)c(C(=O)O)c2)[C@@H](O)[C@H]1O` [10a, 2-Chloro-5-((adenosyl)thio)benzoic acid]: the IC50 amounted to 13 ± 2 nM in test [1], 20 ± 2 nM in test [2] and 30 ± 4 nM on nsp16/nsp10.

`Nc1ncnc2c1ncn2[C@@H]1O[C@H](CSc2cc(C(=O)O)ccc2Cl)[C@@H](O)[C@H]1O` [10b, 4-Chloro-5-((adenosyl)thio)benzoic acid]: the IC50 in test [1] was 330 ± 20 nM; in test [2], 1300 ± 60 nM; on nsp16/nsp10, 2300 ± 120 nM.

For the molecule `Nc1ncnc2c1ncn2[C@@H]1O[C@H](CSc2ccc(Br)c(C(=O)O)c2)[C@@H](O)[C@H]1O` [10c, 2-Bromo-5-((adenosyl)thio)benzoic acid], the IC50 was 8.2 ± 0.4 nM in test [1] and 24 ± 2 nM in test [2].

Consider `COc1ccc(SC[C@H]2O[C@@H](n3cnc4c(N)ncnc43)[C@H](O)[C@@H]2O)cc1C(=O)O` [10d, 2-Methoxy-5-((adenosyl)thio)benzoic acid], for which the results for the IC50 in test [1] and in test [2] were 13 ± 0.6 nM and 17 ± 0.9 nM, respectively.

Regarding `Nc1ncnc2c1ncn2[C@@H]1O[C@H](CSc2ccc(-c3ccccc3)c(C(=O)O)c2)[C@@H](O)[C@H]1O` [10e, 4-((Adenosyl)thio)-[1,1′-biphenyl]-2-carboxylic acid], the IC50 in test [1] is 24 ± 1 nM; in test [2], 25 ± 2 nM.

Consider `Nc1ncnc2c1ncn2[C@@H]1O[C@H](CSc2ccc(C(=O)O)c(-c3ccccc3)c2)[C@@H](O)[C@H]1O` [10f, 5-((Adenosyl)thio)-[1,1′-biphenyl]-2-carboxylic acid], for which the IC50 in test [1] worked out at 210 ± 10 nM; in test [2], 420 ± 19 nM.
